The values that follow come from patent US20160175351A1, “CANCER TREATMENT” (DUKE UNIVERSITY, priority 2013, published 2016).

Where a SMILES comes first, the peptide text is derived from it. The star is where a group is joined. Cbz = O=C(OCc1ccccc1)*; CHN2 = [N-]=[N+]=C*; tBu = CC(C)(C)*

One assay concerns calpain. Conditions: known from literature (McGowan 1989; Barrett 1982); cited from earlier work.
A further assay deals with T1, cathepsin H (Homo sapiens, UniProt P09668).
T1 sequence (P09668 98-335): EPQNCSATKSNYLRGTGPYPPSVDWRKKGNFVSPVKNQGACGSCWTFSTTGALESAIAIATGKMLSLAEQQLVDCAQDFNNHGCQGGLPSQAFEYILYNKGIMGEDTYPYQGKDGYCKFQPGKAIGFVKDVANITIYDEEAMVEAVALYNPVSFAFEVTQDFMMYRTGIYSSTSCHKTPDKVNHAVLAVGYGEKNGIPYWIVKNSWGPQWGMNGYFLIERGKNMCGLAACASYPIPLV
Conditions: known from literature (McGowan 1989; Barrett 1982); cited from earlier work.

The next assay addresses T2, papain (Carica papaya, UniProt P00784).
T2 sequence (P00784 134-345): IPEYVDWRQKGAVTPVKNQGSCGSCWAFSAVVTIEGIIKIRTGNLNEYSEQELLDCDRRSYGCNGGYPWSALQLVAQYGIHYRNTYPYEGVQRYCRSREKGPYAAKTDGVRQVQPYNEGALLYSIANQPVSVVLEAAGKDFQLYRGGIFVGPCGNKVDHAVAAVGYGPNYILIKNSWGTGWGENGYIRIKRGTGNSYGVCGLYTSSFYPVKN
Conditions: known from literature (McGowan 1989; Barrett 1982); cited from earlier work.

Another assay has as its target cathepsin B (Homo sapiens, UniProt P07858). Conditions: known from literature (McGowan 1989; Barrett 1982); cited from earlier work.
In another assay the target is cathepsin L (Homo sapiens, UniProt P07711). The following applies: known from literature (McGowan 1989; Barrett 1982); cited from earlier work.
cathepsin L, sequence (P07711 114-333): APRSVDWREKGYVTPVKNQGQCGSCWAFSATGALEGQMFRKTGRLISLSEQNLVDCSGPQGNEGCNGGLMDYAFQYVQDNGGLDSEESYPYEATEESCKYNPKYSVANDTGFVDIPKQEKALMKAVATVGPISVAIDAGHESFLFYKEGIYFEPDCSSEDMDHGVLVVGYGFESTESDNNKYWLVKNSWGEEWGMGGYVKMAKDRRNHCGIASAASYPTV
Assay [1] has as its system Ctr1 ectodomain cleavage in Cathepsin L-/- mouse embryonic fibroblasts. In words: Ctr1 ectodomain cleavage, anti-Ctr1 immunoblot of Cathepsin L-/- MEFs (FIG. 4). Format: cell-based. An excerpt:
(§1) FIG. 4 is an immunoblot of protein extracts from wild-type MEFs (lanes 1-4) and Cathepsin L^−/− MEFs (lanes 5-8) with an anti-Ctr1 antibody and an anti-tubulin antibody. Lanes 1 and 2 are duplicate samples from untreated wild type MEFs. Lanes 3 and 4 are duplicate samples from wild-type MEFs treated with the Cathepsin L inhibitor E64d. Lanes 5 and 6 are duplicate samples from untreated Cathepsin L^−/− MEFs. Lanes 7 and 8 are duplicate samples from Cathepsin L^−/− MEFs treated with the Cathepsin L inhibitor E64d.
(§2) Mouse embryonic fibroblasts from wild type and CatL^−/− littermates were cultured in medium supplemented with 10% fetal bovine serum and treated with DMSO or […] of the cell permeable cysteine protease inhibitor E64d and harvested 16 hours later. Total proteins were isolated from the cells by homogenizing cells in ice cold PBS supplemented with 1% Triton-X, 0.1% SDS, and 1 mM EDTA. Cell debris was removed by centrifugation and the total amounts of soluble proteins were quantified in each sample. Equal amounts of proteins were separated on Tris/glycine gradient gel, transferred to nitrocellulose membrane and blocked with 5% non-fat milk in Tris buffered saline supplemented with 0.05% Tween (TBST) for 1 h. Membranes were incubated with anti-Ctr1 antibody (1:1000) followed by anti-rabbit-HRP coupled antibody (1:5000) and bands detected by enhanced chemiluminescent substrate. […]

For assay [2], the system named is Ctr1 ectodomain cleavage in wild type mouse embryonic fibroblasts. As to the kind of experiment: Ctr1 ectodomain cleavage, anti-Ctr1 immunoblot of wild type MEFs (FIG. 4). Format: cell-based. The following applies: E64d 10 μM, harvested 16 hours later.
Text: as §1, §2
A general note: In western blotting, separated proteins are transferred to a membrane and probed.

For the next assay, the system named is human Ctr1. In words: Ctr1 ectodomain cleavage, anti-Ctr1 immunoblot of Ctr1-/- MEFs stably transfected with human Ctr1 (FIG. 5). Format: cell-based. Conditions: MEFs expressing human Ctr1, inhibitor 10 μM, 16 hours, immunoblot (lane 3). As for the experimental part: (§3) Each of the above were either untreated (lanes 1 and 2), or treated with the Cathepsin L inhibitor Z-FY(tBu)-DMK (lanes 3 and 4). F=full-length, T=truncated.
(§4) Mouse embryonic fibroblasts from Ctr1^−/− embryos were stably transfected with the human Ctr1 and the human Ctr1 containing the proline to alanine mutation at position 25 (Ctr1^P25A). Cells were cultured in medium supplemented with 20% fetal bovine serum and treated with DMSO or 10 μM cysteine protease Cathepsin L, Z-FY(t-Bu)-DMK and harvested 16 hours later. Total proteins were isolated from the cells by homogenizing cells in ice cold PBS supplemented with 1% Triton-X, 0.1% SDS, and 1 mM EDTA. Cell debris was removed by centrifugation and the total amounts of soluble proteins were quantified in each sample. Equal amounts of proteins were separated on tris/glycine gradient gel, transferred to nitrocellulose membrane and blocked with 5% non-fat milk in Tris buffered saline supplemented with 0.05% Tween (TBST) for 1 h. Membranes were incubated with anti-Ctr1 antibody (1:1000) followed by anti-rabbit-HRP coupled antibody (1:5000) and bands detected by enhanced chemiluminescent substrate. Anti-Actin antibody was used as loading control.
(§5) Inhibition of the cysteine protease Cathepsin L, Z-FY(t-Bu)-DMK (10 μM) (lanes 3 and 4) results in an increased levels of the copper and cisplatin binding full length form of Ctr1. […]

Assay [3] relates to Ctr1-/- MEFs expressing Ctr1^P25A. As to the kind of experiment: Cisplatin uptake/accumulation by ICP-MS in MEFs expressing Ctr1 P25A (FIG. 6). The assay is classed as cell-based, mouse. The following applies: inhibitor 10 μM over night, then cisplatin 200 μM for 2 h. An excerpt: (§6) FIG. 6 is a graph showing platinum accumulation in Ctr1 knockout MEFs (Ctr1^−/−), wild-type MEFs (Ctr1), or MEFs expressing Ctr1 with a Pro25Ala mutation (Ctr1^P25A). Each of the above were either untreated (1, 2 and 3), or treated with the Cathepsin L inhibitor Z-FY(tBu)-DMK (4, 5 and 6).
(§7) Mouse embryonic fibroblasts from Ctr1^−/− embryos were stably transfected with the human Ctr1 and the human Ctr1 containing the proline to alanine mutation at position 25 (Ctr1^P25A). […] Cells were rinsed in three times with ice cold PBS before the cells were scraped and divided into two tubes; one for measuring metal concentration and one for protein quantification. […] Platinum concentrations in the digested samples were measured by inductively coupled plasma mass spectrometry ([…]) and normalized to the total amount of protein in the sample.
(§8) Mouse Ctr1^−/− MEFs were transfected with vector alone (Ctr1^−/−), the expression vector expressing wild type Ctr1 (Ctr1) or the Ctr1^P25A mutant protein (Ctr1^P25A). Cells were incubated with cisplatin (200 μM for 2 h), or cisplatin plus the Cathepsin L inhibitor Z-FY(t-Bu)-DMK (10 μM) as indicated, harvested and cisplatin accumulation measured by ICP-MS and plotted on the Y-axis.

The test system of assay [4] is human Ctr1 containing the proline to alanine mutation at position 25 (Ctr1^P25A). As to the kind of experiment: Ctr1 ectodomain cleavage, anti-Ctr1 immunoblot of Ctr1-/- MEFs stably transfected with human Ctr1 P25A (FIG. 5). Format: cell-based. The following applies: MEFs expressing Ctr1^P25A, inhibitor 10 μM, 16 hours, immunoblot (lane 4). As for the experimental part: as §3, §4, §5

Assay [5] has as its system Ctr1-/- MEFs expressing wild type Ctr1. In words: Cisplatin uptake/accumulation by ICP-MS in MEFs expressing wild type Ctr1 (FIG. 6). The assay is classed as cell-based, mouse. The following applies: inhibitor 10 μM over night, then cisplatin 200 μM for 2 h.
Text: as §6, §7, §8

Regarding `CC(C)C[C@H](NC(=O)[C@H]1O[C@@H]1C(=O)O)C(=O)NCCCCN=C(N)N` (relative stereo) [E-64, trans-Epoxysuccinyl-L-leucylamido(4-guanidino)butane], in the assay with calpain, the inhibition of calpain entry is recorded as “inhibit”. In addition, at cathepsin H, the “inhibition of cathepsin H” value was “inhibit”. For the same compound, the inhibition of papain entry at papain is listed as “inhibit”. Moreover, the “inhibition of cathepsin B” value at cathepsin B is “inhibit”. Moreover, the “inhibition of cathepsin L” value at cathepsin L was “inhibit”.
As to `CCOC(=O)[C@H]1O[C@@H]1C(=O)N[C@@H](CC(C)C)C(=O)NCCC(C)C` (relative stereo) [E64d, (2S,3S)-trans-Epoxysuccinyl-L-leucylamido-3-methylbutane ethyl ester], the “levels of cleaved Ctr1” value in assay [1] (Cathepsin L knock out MEFs, E64d 10 μM, 16 hours) was “not”; in [2], “dramatic reduction”. For the same compound, the “full-length Ctr1” value in assay [1] (Cathepsin L-/- MEFs treated with E64d vs not treated) was “increase”.
Take `CC(C)(C)Oc1ccc(CC(NC(=O)C(Cc2ccccc2)NC(=O)OCc2ccccc2)C(=O)C=[N+]=[N-])cc1` (stereo not drawn) [Z-FY(t-Bu)-DMK, benzyl (1-((1-(4-(tert-butoxy)phenyl)-4-diazo-3-oxobutan-2-yl)amino)-1-oxo-3-phenylpropan-2-yl)carbamate] (Cbz-Phe-Tyr(tBu)-CHN2; configuration not given here): the “levels of the copper and cisplatin binding full length form of Ctr1” value (in the assay with human Ctr1; in assay [4]) was “increased” throughout. In addition, the “cisplatin accumulation (platinum by ICP-MS, normalized to protein)” value in [3] and in assay [5] was “enhanced” each time.
